Assay results taken from US11470844B2, “Vespidae wasp repellent” (KINP CO., LTD, priority 2015, dated 2022).

Key:
Test in all cases: Grape juice attraction trap set outside
Assay type in all cases: in vivo
[1] = test system: Vespidae worker, all species
Experimental: (§1) The inventors conducted the experiment at four places in Kagawa Prefecture Kinbuchi Forest Park. The experiment was conducted totally 4 times from Oct. 11 to Nov. 4, 2013, from Nov. 4 to Dec. 7, 2013, from Oct. 1 to Oct. 31, 2014, and from Oct. 31 to Dec. 9, 2014.
(§2) First, four 2 cm square holes were opened on the side of a 2 L capacity PET bottle, and 500 mL of grape juice was added thereto to prepare a control attraction trap to kill a Vespidae worker. As Test liquid example, 25 mL, 5 mL or 1 mL of 2-phenylethanol was added to the grape juice of the traps. […] Since all of the test sites were low mountainous and sloping areas and had many trees, each trap had to be suspended from the branch of live trees. As a result, the horizontal distances between a pair of control example trap and test liquid example trap could not be adjusted to the same, and the distance was from 1 m to 8.5 m. There were not only Vespidae worker but also male Vespidae among the killed Vespidae wasps in the attraction traps; however, the results of the control example and test liquid example were compared on the basis of the number of the killed Vespidae worker, since a Vespidae worker causes a stabbing accident and plays an important role in building a nest. In Table 8, “*” indicates the case where there is a significant difference at p<0.01 in the χ^2 test to which the correction of Yates is applied, and “**” indicates the case where there is a significant difference at p<0.001 in the same test. The result of the first experiment in 2013 is shown in Table 9, the result of the second experiment in 2013 is shown in Table 10, the result of the first experiment using 1% 2-phenylethanol in 2014 is shown in Table 11, the result of the second experiment in 2014 is shown in Table 12, the result of the first experiment using 0.1% 2-phenylethanol in 2014 is shown in Table 13, and the result of the second experiment in 2014 is shown in Table 14. In Tables 9 to 14, “*” indicates the case where there is a significant difference at p<0.05 in the t-test, “**” indicates the case where there is a significant difference at p<0.01 in the same test, and “***” indicates the case where there is a significant difference at p<0.001 in the same test.
(§3) In the first experiment and second experiment, the trap prepared by adding 25 mL of 2-phenylethanol to 500 mL of grape juice was used as the test liquid example of 5% 2-phenylethanol.
(§4) In the first experiment and second experiment, 10 traps prepared by adding 5 mL of 2-phenylethanol to 500 mL of grape juice and 10 traps prepared by adding 0.5 mL of 2-phenylethanol to 500 mL of grape juice were used respectively as the 2 kinds of test liquid examples of 1% 2-phenylethanol and 0.1% 2-phenylethanol to conduct the experiment.

Vespa ducalis = test system: Vespa ducalis
Experimental: as §1, §2, §3, §4

Vespa analis = test system: Vespa analis
Experimental: as §1, §2, §3, §4

Vespa mandarinia = test system: Vespa mandarinia
Experimental: as §1, §2, §3, §4

[2] = test system: Vespa crabro flavofasciata
Experimental: as §1, §2, §3, §4

[3] = test system: Vespa simillima xanthoptera
Experimental: as §1, §2, §3, §4

[4] = 0.1% 2-phenylethanol trap, first experiment 2014, 10 traps
[5] = 0.1% 2-phenylethanol trap, second experiment 2014, 10 traps
[6] = 1% 2-phenylethanol trap, first experiment 2014, 10 traps
[7] = 1% 2-phenylethanol trap, second experiment 2014, 10 traps
[8] = 5% 2-phenylethanol trap, first experiment 2013, 18 traps
[9] = 5% 2-phenylethanol trap, second experiment 2013, 18 traps

SMILES: OCCc1ccccc1 [2-Phenylethanol, 2-phenylethanol]
- Number of effective trap ([1]; 0.1% 2-phenylethanol in grape juice, 2014, 1st experiment, 10 installed traps): 10
- Number of effective trap ([1]; 0.1% 2-phenylethanol in grape juice, 2014, 2nd experiment, 10 installed traps): 1
- Total number of killed worker (Average ± SD), All species [1, 4]: (6.20 ± 6.27)
- Total number of killed worker, All species [1, 4]: 62
- Total number of killed worker (Average ± SD), All species [1, 5]: (0.30 ± 0.95)
- Total number of killed worker, All species [1, 5]: 3
- Number of effective trap ([1]; 1% 2-phenylethanol in grape juice, 2014, 1st experiment, 10 installed traps): 0
- Number of effective trap ([1]; 1% 2-phenylethanol in grape juice, 2014, 2nd experiment, 10 installed traps): 0
- Total number of killed worker (Average ± SD), All species [1, 6]: (0.00 ± 0.00)
- Total number of killed worker, All species [1, 6]: 0
- Total number of killed worker (Average ± SD), All species [1, 7]: (0.00 ± 0.00)
- Total number of killed worker, All species [1, 7]: 0
- Number of effective trap ([1]; 5% 2-phenylethanol in grape juice, 2013, 1st experiment, 18 installed traps): 0
- Number of effective trap ([1]; 5% 2-phenylethanol in grape juice, 2013, 2nd experiment, 18 installed traps): 0
- Total number of killed worker (Average ± SD), All species [1, 8]: (0.00 ± 0.00)
- Total number of killed worker, All species [1, 8]: 0
- Total number of killed worker (Average ± SD), All species [1, 9]: (0.00 ± 0.00)
- Total number of killed worker, All species [1, 9]: 0
- time for which 2-phenylethanol contained in grape juice maintained its effect ([1]; 5% and 1% 2-phenylethanol traps): at least about one month
- Total number of killed worker (Average ± SD), Vespa ducalis (Vespa ducalis; [4]): (0.40 ± 0.70)
- Total number of killed worker, Vespa ducalis (Vespa ducalis; [4]): 4
- Total number of killed worker (Average ± SD), Vespa ducalis (Vespa ducalis; [5]): (0.00 ± 0.00)
- Total number of killed worker, Vespa ducalis (Vespa ducalis; [5]): 0
- Total number of killed worker (Average ± SD), Vespa ducalis (Vespa ducalis; [6]): (0.00 ± 0.00)
- Total number of killed worker, Vespa ducalis (Vespa ducalis; [6]): 0
- Total number of killed worker (Average ± SD), Vespa ducalis (Vespa ducalis; [7]): (0.00 ± 0.00)
- Total number of killed worker, Vespa ducalis (Vespa ducalis; [7]): 0
- Total number of killed worker (Average ± SD), Vespa ducalis (Vespa ducalis; [8]): (0.00 ± 0.00)
- Total number of killed worker, Vespa ducalis (Vespa ducalis; [8]): 0
- Total number of killed worker (Average ± SD), Vespa ducalis (Vespa ducalis; [9]): (0.00 ± 0.00)
- Total number of killed worker, Vespa ducalis (Vespa ducalis; [9]): 0
- Total number of killed worker (Average ± SD), Vespa analis (Vespa analis; [4]): (0.60 ± 0.70)
- Total number of killed worker, Vespa analis (Vespa analis; [4]): 6
- Total number of killed worker (Average ± SD), Vespa analis (Vespa analis; [5]): (0.00 ± 0.00)
- Total number of killed worker, Vespa analis (Vespa analis; [5]): 0
- Total number of killed worker (Average ± SD), Vespa analis (Vespa analis; [6]): (0.00 ± 0.00)
- Total number of killed worker, Vespa analis (Vespa analis; [6]): 0
- Total number of killed worker (Average ± SD), Vespa analis (Vespa analis; [7]): (0.00 ± 0.00)
- Total number of killed worker, Vespa analis (Vespa analis; [7]): 0
- Total number of killed worker (Average ± SD), Vespa analis (Vespa analis; [8]): (0.00 ± 0.00)
- Total number of killed worker, Vespa analis (Vespa analis; [8]): 0
- Total number of killed worker (Average ± SD), Vespa analis (Vespa analis; [9]): (0.00 ± 0.00)
- Total number of killed worker, Vespa analis (Vespa analis; [9]): 0
- Total number of killed worker (Average ± SD), Vespa mandarinia (Vespa mandarinia; [4]): (3.60 ± 5.58)
- Total number of killed worker, Vespa mandarinia (Vespa mandarinia; [4]): 36
- Total number of killed worker (Average ± SD), Vespa mandarinia (Vespa mandarinia; [5]): (0.30 ± 0.95)
- Total number of killed worker, Vespa mandarinia (Vespa mandarinia; [5]): 3
- Total number of killed worker (Average ± SD), Vespa mandarinia (Vespa mandarinia; [6]): (0.00 ± 0.00)
- Total number of killed worker, Vespa mandarinia (Vespa mandarinia; [6]): 0
- Total number of killed worker (Average ± SD), Vespa mandarinia (Vespa mandarinia; [7]): (0.00 ± 0.00)
- Total number of killed worker, Vespa mandarinia (Vespa mandarinia; [7]): 0
- Total number of killed worker (Average ± SD), Vespa mandarinia (Vespa mandarinia; [8]): (0.00 ± 0.00)
- Total number of killed worker, Vespa mandarinia (Vespa mandarinia; [8]): 0
- Total number of killed worker (Average ± SD), Vespa mandarinia (Vespa mandarinia; [9]): (0.00 ± 0.00)
- Total number of killed worker, Vespa mandarinia (Vespa mandarinia; [9]): 0
- Total number of killed worker (Average ± SD), Vespa crabro flavofasciata [2, 4]: (1.50 ± 1.27)
- Total number of killed worker, Vespa crabro flavofasciata [2, 4]: 15
- Total number of killed worker (Average ± SD), Vespa crabro flavofasciata [2, 5]: (0.00 ± 0.00)
- Total number of killed worker, Vespa crabro flavofasciata [2, 5]: 0
- Total number of killed worker (Average ± SD), Vespa crabro flavofasciata [2, 6]: (0.00 ± 0.00)
- Total number of killed worker, Vespa crabro flavofasciata [2, 6]: 0
- Total number of killed worker (Average ± SD), Vespa crabro flavofasciata [2, 7]: (0.00 ± 0.00)
- Total number of killed worker, Vespa crabro flavofasciata [2, 7]: 0
- Total number of killed worker (Average ± SD), Vespa crabro flavofasciata [2, 8]: (0.00 ± 0.00)
- Total number of killed worker, Vespa crabro flavofasciata [2, 8]: 0
- Total number of killed worker (Average ± SD), Vespa crabro flavofasciata [2, 9]: (0.00 ± 0.00)
- Total number of killed worker, Vespa crabro flavofasciata [2, 9]: 0
- Total number of killed worker (Average ± SD), Vespa simillima xanthoptera [3, 4]: (0.10 ± 0.32)
- Total number of killed worker, Vespa simillima xanthoptera [3, 4]: 1
- Total number of killed worker (Average ± SD), Vespa simillima xanthoptera [3, 5]: (0.00 ± 0.00)
- Total number of killed worker, Vespa simillima xanthoptera [3, 5]: 0
- Total number of killed worker (Average ± SD), Vespa simillima xanthoptera [3, 6]: (0.00 ± 0.00)
- Total number of killed worker, Vespa simillima xanthoptera [3, 6]: 0
- Total number of killed worker (Average ± SD), Vespa simillima xanthoptera [3, 7]: (0.00 ± 0.00)
- Total number of killed worker, Vespa simillima xanthoptera [3, 7]: 0
- Total number of killed worker (Average ± SD), Vespa simillima xanthoptera [3, 8]: (0.00 ± 0.00)
- Total number of killed worker, Vespa simillima xanthoptera [3, 8]: 0
- Total number of killed worker (Average ± SD), Vespa simillima xanthoptera [3, 9]: (0.00 ± 0.00)
- Total number of killed worker, Vespa simillima xanthoptera [3, 9]: 0
